Assays:
[1] = excess molar enthalpy (molar enthalpy of mixing); xn = mol fraction of the nth substance listed; details: 298.15 K, 101 kPa, Liquid, Calvet calorimetry
[2] = xn = mol fraction of the nth substance listed; details: 298.15 K, 101 kPa, Liquid, Vibrating tube method

BrCCBr [1,2-dibromoethane] + CCCCOC(=O)CC
[1]
Details | excess molar enthalpy [kJ/mol]
x2 = 0.0417 | 0.022
x2 = 0.0966 | 0.031
x2 = 0.1618 | 0.026
x2 = 0.2302 | 0.008
x2 = 0.2936 | -0.02
x2 = 0.3529 | -0.05
x2 = 0.4091 | -0.075
x2 = 0.4511 | -0.092
x2 = 0.4917 | -0.101
x2 = 0.5694 | -0.111
x2 = 0.6594 | -0.11
x2 = 0.7605 | -0.096
x2 = 0.8773 | -0.063

BrCCCCBr [1,4-dibromobutane] + CCCCOC(C)=O
Details | excess molar enthalpy [kJ/mol] | mass density [kg/m3]
[1], x2 = 0.0576 | 0.014 | –
[1], x2 = 0.135 | 0.024 | –
[1], x2 = 0.2211 | 0.026 | –
[1], x2 = 0.3056 | 0.015 | –
[1], x2 = 0.3729 | -0.004 | –
[1], x2 = 0.4291 | -0.026 | –
[1], x2 = 0.4798 | -0.052 | –
[1], x2 = 0.4866 | -0.066 | –
[1], x2 = 0.5277 | -0.078 | –
[1], x2 = 0.5406 | -0.088 | –
[1], x2 = 0.603 | -0.098 | –
[1], x2 = 0.6715 | -0.099 | –
[1], x2 = 0.7464 | -0.093 | –
[1], x2 = 0.8416 | -0.065 | –
[1], x2 = 0.9307 | -0.03 | –
[2], x1 = 0.06 | – | 1754.15
[2], x1 = 0.1131 | – | 1699.34
[2], x1 = 0.1633 | – | 1648.18
[2], x1 = 0.2229 | – | 1588.24
[2], x1 = 0.2748 | – | 1536.73
[2], x1 = 0.3886 | – | 1426
[2], x1 = 0.4426 | – | 1374.38
[2], x1 = 0.5 | – | 1320.28
[2], x1 = 0.6216 | – | 1207.87
[2], x1 = 0.6806 | – | 1154.38
[2], x1 = 0.8076 | – | 1041.44
[2], x1 = 0.8633 | – | 992.97
[2], x1 = 0.9298 | – | 935.67

BrCCCCCBr [1,5-dibromopentane] + CCCCOC(C)=O
[1]
Details | excess molar enthalpy [kJ/mol]
x2 = 0.0669 | 0.028
x2 = 0.1499 | 0.04
x2 = 0.2436 | 0.042
x2 = 0.3318 | 0.035
x2 = 0.4096 | 0.019
x2 = 0.4762 | 0.001
x2 = 0.5331 | -0.02
x2 = 0.5566 | -0.032
x2 = 0.5827 | -0.039
x2 = 0.6168 | -0.052
x2 = 0.6927 | -0.063
x2 = 0.7844 | -0.059
x2 = 0.8533 | -0.044
x2 = 0.9377 | -0.024

BrCCCCCCBr [1,6-dibromohexane] + CCCCOC(C)=O
Details | excess molar enthalpy [kJ/mol] | mass density [kg/m3]
[1], x2 = 0.0742 | 0.034 | –
[1], x2 = 0.1664 | 0.058 | –
[1], x2 = 0.27 | 0.075 | –
[1], x2 = 0.3625 | 0.075 | –
[1], x2 = 0.4313 | 0.063 | –
[1], x2 = 0.4863 | 0.05 | –
[1], x2 = 0.5098 | 0.04 | –
[1], x2 = 0.5385 | 0.031 | –
[1], x2 = 0.5631 | 0.017 | –
[1], x2 = 0.5869 | 0.007 | –
[1], x2 = 0.6272 | -0.01 | –
[1], x2 = 0.6989 | -0.022 | –
[1], x2 = 0.7827 | -0.026 | –
[1], x2 = 0.8669 | -0.02 | –
[1], x2 = 0.9422 | -0.01 | –
[2], x2 = 0.1369 | – | 1513.56
[2], x2 = 0.2111 | – | 1464.63
[2], x2 = 0.2634 | – | 1429.52
[2], x2 = 0.3292 | – | 1384.72
[2], x2 = 0.3855 | – | 1345.64
[2], x2 = 0.4456 | – | 1303.3
[2], x2 = 0.5046 | – | 1260.95
[2], x2 = 0.5622 | – | 1219.05
[2], x2 = 0.6175 | – | 1178.12
[2], x2 = 0.7334 | – | 1090.14
[2], x2 = 0.7855 | – | 1049.66
[2], x2 = 0.8433 | – | 1003.91
[2], x2 = 0.8909 | – | 965.75
[2], x2 = 0.9462 | – | 920.67

BrCCCCCBr [1,5-dibromopentane] + CCCCOC=O
Details | excess molar enthalpy [kJ/mol] | mass density [kg/m3]
[1], x2 = 0.0868 | 0.097 | –
[1], x2 = 0.1853 | 0.165 | –
[1], x2 = 0.2872 | 0.222 | –
[1], x2 = 0.3842 | 0.25 | –
[1], x2 = 0.4656 | 0.253 | –
[1], x2 = 0.5328 | 0.242 | –
[1], x2 = 0.5803 | 0.233 | –
[1], x2 = 0.6291 | 0.218 | –
[1], x2 = 0.7084 | 0.187 | –
[1], x2 = 0.7902 | 0.139 | –
[1], x2 = 0.8713 | 0.09 | –
[1], x2 = 0.9437 | 0.047 | –
[2], x2 = 0.0756 | – | 1642.01
[2], x2 = 0.1366 | – | 1599.08
[2], x2 = 0.2027 | – | 1551.59
[2], x2 = 0.2682 | – | 1503.58
[2], x2 = 0.3259 | – | 1460.47
[2], x2 = 0.3871 | – | 1413.8
[2], x2 = 0.4492 | – | 1365.54
[2], x2 = 0.5143 | – | 1313.85
[2], x2 = 0.5679 | – | 1270.35
[2], x2 = 0.6274 | – | 1221.19
[2], x2 = 0.687 | – | 1170.94
[2], x2 = 0.7958 | – | 1076.48
[2], x2 = 0.8434 | – | 1033.97
[2], x2 = 0.9499 | – | 936.18
